ChEMBL document CHEMBL1201862, “PubChem BioAssay data set” (2004)
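The compound was tested at five concentrations on cells cultured in 96-well plates, with a 48-hour exposure period. GI50 is the concentration that inhibits growth by half.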 Active and inactive are the calls of the source. Cut-off read from the data, not from the text of the source: active = GI50 up to about 1.1 µM and inactive = higher.

Assays:
Assay in all cases: NCI-60 cell line screen, 48 h
[1] = system: SK-MEL-5
[2] = system: LOX IMVI
[3] = system: SF-268
[4] = system: SN12C
[5] = system: HCT-116
[6] = system: IGROV-1
[7] = system: M14
[8] = system: TK-10
[9] = system: NCI-H226
[10] = system: NCI-H522
[11] = system: DLD-1
[12] = system: OVCAR-8
[13] = system: 786-0
[14] = system: HL-60
[15] = system: HT-29
[16] = system: A498
[17] = system: UO-31

Measured: GI50

Oc1ccccc1/C=C/c1csnn1
inactive: [1] > 100 µM | [2] > 52.1 µM | [3] > 100 µM | [4] > 100 µM | [5] 98.4 µM | [6] > 100 µM | [7] > 100 µM | [8] > 100 µM | [9] > 100 µM | [10] > 100 µM | [11] > 100 µM | [12] > 100 µM | [13] > 31.6 µM | [14] 39.4 µM | [15] > 100 µM | [16] > 100 µM | [17] > 100 µM

COc1ccc([N+]2=NC(c3ccc([N+](=O)[O-])cc3)=NN(c3ccccc3)C2)cc1.[O-][Cl+3]([O-])([O-])[O-]
inactive: [1] 28.4 µM | [2] 68.5 µM | [3] > 100 µM | [4] > 100 µM | [5] 65.5 µM | [6] 33.2 µM | [8] > 100 µM | [9] > 100 µM | [10] 3.65 µM | [11] 34.9 µM | [12] > 100 µM | [13] > 100 µM | [14] 22.3 µM | [15] 62.7 µM | [16] > 100 µM | [17] 51.5 µM

Cc1cc(Cl)cc2c1NC(=O)C2(O)CC(=O)c1ccc(Br)cc1 (stereo not given)
inactive: [1] 25 µM | [2] 38.5 µM | [3] > 77.8 µM | [4] > 77.1 µM | [5] 56.9 µM | [6] 66.8 µM | [7] 52 µM | [8] > 73.8 µM | [9] > 100 µM | [10] 45.7 µM | [11] 50.8 µM | [12] 38.2 µM | [13] 38.2 µM | [14] 16.9 µM | [15] 49.9 µM | [16] 37.8 µM | [17] > 100 µM

C/C(CC(=O)Nc1ccccc1C)=N/NS(=O)(=O)c1ccc(C)cc1
inactive: [1] > 100 µM | [2] > 100 µM | [3] > 100 µM | [5] > 100 µM | [6] > 100 µM | [7] > 100 µM | [8] > 100 µM | [9] > 100 µM | [10] > 100 µM | [11] > 100 µM | [12] > 100 µM | [13] > 100 µM | [14] > 100 µM | [15] > 100 µM | [16] > 100 µM | [17] > 100 µM

COCNC(=NC#N)NCOC
inactive: [1] > 100 µM | [2] > 41.7 µM | [3] > 100 µM | [4] > 100 µM | [5] > 65.9 µM | [6] > 100 µM | [7] > 100 µM | [8] > 100 µM | [9] > 100 µM | [10] > 100 µM | [11] > 62.8 µM | [12] > 100 µM | [13] > 47.2 µM | [14] > 68.9 µM | [15] > 100 µM | [16] > 100 µM | [17] > 100 µM

Cc1cc(Cl)ccc1NC(=O)/C(=N\NC(C)(C)C)C(C#N)c1nc(-c2ccc([N+](=O)[O-])cc2)cs1 (stereo not given)
inactive: [1] > 100 µM | [2] > 100 µM | [3] > 100 µM | [4] > 100 µM | [5] > 100 µM | [6] > 100 µM | [7] > 100 µM | [8] > 100 µM | [9] > 100 µM | [10] > 100 µM | [11] > 100 µM | [12] > 100 µM | [13] > 100 µM | [14] > 100 µM | [15] > 100 µM | [16] > 100 µM | [17] > 100 µM
